Reference: ChEMBL document CHEMBL1201862, “PubChem BioAssay data set” (2004)
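96-well plates; 48 h exposure; 5 concentrations. Endpoints by linear interpolation between flanking doses. Not reached: highest tested concentration assigned. Here, GI50 denotes the concentration required for 50% inhibition of growth.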 Active and inactive are the calls of the source. Cut-off read from the data, not from the text of the source: active = GI50 up to about 1.1 µM and inactive = higher.

What was measured:
Experiment in all cases: NCI-60 cell line screen, 48 h
[1] = system: MCF7
[2] = system: LOX IMVI
[3] = system: MOLT-4
[4] = system: MDA-N
[5] = system: BT-549
[6] = system: SR
[7] = system: TK-10
[8] = system: OVCAR-3
[9] = system: SNB-19
[10] = system: HL-60
[11] = system: M14
[12] = system: HOP-62
[13] = system: T47D
[14] = system: RPMI-8226
[15] = system: UO-31
[16] = system: NCI-H522
[17] = system: CCRF-CEM
[18] = system: SF-539
[19] = system: NCI-H460
[20] = system: Hs-578T

| Compound | GI50 [1] | GI50 [2] | GI50 [3] | GI50 [4] | GI50 [5] | GI50 [6] | GI50 [7] | GI50 [8] | GI50 [9] | GI50 [10] | GI50 [11] | GI50 [12] | GI50 [13] | GI50 [14] | GI50 [15] | GI50 [16] | GI50 [17] | GI50 [18] | GI50 [19] | GI50 [20] |
| --- | --- | --- | --- | --- | --- | --- | --- | --- | --- | --- | --- | --- | --- | --- | --- | --- | --- | --- | --- | --- |
| CN(C(=O)Cc1cc(Cl)c(Cl)cc1NC(=O)CCCN)[C@H]1CCCC[C@@H]1N1CCCC1 | 20.1 µM (inactive) | 18.6 µM (inactive) | 60.8 µM (inactive) | 16.7 µM (inactive) | 71.9 µM (inactive) | 34.8 µM (inactive) | 57.8 µM (inactive) | > 100 µM (inactive) | 19.8 µM (inactive) | 22.4 µM (inactive) | 19 µM (inactive) | > 100 µM (inactive) | 29.8 µM (inactive) | > 100 µM (inactive) | > 100 µM (inactive) | 15.8 µM (inactive) |  |  |  |  |
| N=C(c1ccc2ccccc2c1)c1ccccc1Cc1ccccc1 | 33.5 µM (inactive) | 45.6 µM (inactive) | 21.7 µM (inactive) | 24.8 µM (inactive) | 84.7 µM (inactive) | 19.9 µM (inactive) | > 100 µM (inactive) | 22.1 µM (inactive) | > 100 µM (inactive) | 27.5 µM (inactive) | 58.1 µM (inactive) | 39.6 µM (inactive) | 17.3 µM (inactive) | 38 µM (inactive) | 33.4 µM (inactive) |  | 19.5 µM (inactive) | 41.5 µM (inactive) | 33.6 µM (inactive) |  |
| COc1cc(N(CCC#N)CCC#N)ccc1C(/N=N/c1ccccc1C)=N\NC(=O)c1ccc(C)cc1 |  | 40.8 µM (inactive) | 28 µM (inactive) | 23.8 µM (inactive) | 98.2 µM (inactive) |  | > 100 µM (inactive) | 24.2 µM (inactive) | 63 µM (inactive) | 2.15 µM (inactive) | > 100 µM (inactive) | > 100 µM (inactive) | 38.2 µM (inactive) |  | 76.2 µM (inactive) | 25.2 µM (inactive) | 15.2 µM (inactive) |  | 73.5 µM (inactive) | > 100 µM (inactive) |
| O=C(O)c1cccc(CN2CCCCC2)c1 | > 100 µM (inactive) | > 100 µM (inactive) | > 100 µM (inactive) | > 100 µM (inactive) | > 100 µM (inactive) |  | > 100 µM (inactive) | > 100 µM (inactive) | > 100 µM (inactive) |  | > 100 µM (inactive) | > 100 µM (inactive) | > 100 µM (inactive) | > 100 µM (inactive) | > 100 µM (inactive) | > 100 µM (inactive) | > 100 µM (inactive) |  | > 100 µM (inactive) | > 100 µM (inactive) |
| COc1ccc2c(c1)CC1Cc3cc(OC)c(OC)cc3CN1CC2 (stereo not drawn) |  | 23.5 µM (inactive) | 24 µM (inactive) |  | 32.6 µM (inactive) | 17.7 µM (inactive) | 22.2 µM (inactive) | 72.4 µM (inactive) | 35.3 µM (inactive) | 11.1 µM (inactive) | 48.2 µM (inactive) | 71.3 µM (inactive) | 23.9 µM (inactive) | 25.8 µM (inactive) | 15.3 µM (inactive) | 34.6 µM (inactive) | 19.5 µM (inactive) |  | 23 µM (inactive) | 53 µM (inactive) |
| COc1cc(C2C(C#N)=C(N)OC3=C2CCS(=O)(=O)c2ccc(C)cc23)cc(OC)c1OC (stereo not drawn) |  | > 100 µM (inactive) |  | > 100 µM (inactive) | > 100 µM (inactive) | 47.8 µM (inactive) | > 100 µM (inactive) | > 100 µM (inactive) | > 100 µM (inactive) | > 100 µM (inactive) | > 100 µM (inactive) | > 100 µM (inactive) | > 100 µM (inactive) | > 100 µM (inactive) | > 100 µM (inactive) | > 100 µM (inactive) | > 100 µM (inactive) |  | > 100 µM (inactive) | > 100 µM (inactive) |
| CCc1nc(N)nc(N)c1-c1ccc(Cl)c(Cl)c1 [ETOPRINE] | 3.05 µM (inactive) | 3.51 µM (inactive) |  |  | 51.3 µM (inactive) | 0.755 µM (active) | 36.1 µM (inactive) | 24.9 µM (inactive) | 25.2 µM (inactive) | > 100 µM (inactive) | 0.675 µM (active) | 2.93 µM (inactive) | > 100 µM (inactive) | 9.71 µM (inactive) | 2.52 µM (inactive) | 5.81 µM (inactive) | > 100 µM (inactive) | 5.16 µM (inactive) | 0.506 µM (active) | 43 µM (inactive) |
| CNn1c(C)n[nH]c1=O | > 100 µM (inactive) | > 100 µM (inactive) | > 100 µM (inactive) |  | > 100 µM (inactive) | > 100 µM (inactive) | > 100 µM (inactive) | > 100 µM (inactive) | > 100 µM (inactive) | > 100 µM (inactive) | > 100 µM (inactive) | > 100 µM (inactive) | > 100 µM (inactive) | > 100 µM (inactive) | > 100 µM (inactive) | > 100 µM (inactive) | > 100 µM (inactive) | > 100 µM (inactive) | > 100 µM (inactive) | > 100 µM (inactive) |
